Laboratory results as given in patent publication US20240165112A1, “THERAPY FOR THE TREATMENT OF CANCER” (Bristol-Myers Squibb Company, priority 2022, published 2024).

How the values were obtained:
[1] = system: TNC, ACTA2, PAI-1 transcripts in normal human lung fibroblasts (NHLF); assay: TGF-β-induced gene transcription, fibroblast activation markers (RT-PCR); format: cell-based
Method: (§1) Normal human lung fibroblasts (NHLF, black bars) were treated with 10 ng/mL TGF-β after 1 hour pre-incubation with a range of Compound 1 concentrations, and cells were lysed 24 hours later. Indicated gene transcripts were assessed by RT-PCR relative to GAPDH. Data were normalized to expression after TGF-β treatment in the presence of only DMSO. Data are presented as mean of 3 biological replicates, and error bars indicate standard deviation. The graphs are representative of at least 2 independent experiments. *P<0.05; ** P<0.01, ***P<0.001; ****P<0.0001 by student's t-test. Abbreviations: ACTA2, smooth muscle actin; CAF, cancer associated fibroblasts; DMSO, dimethyl sulfoxide; GAPDH, glyceraldehyde-3-phosphate dehydrogenase; NHLF, normal lung human fibroblasts; PAI-1, plasminogen activator inhibitor 1; RNA, ribonucleic acid; RT-PCR, reverse transcription polymerase chain reaction; TGF-β, transforming growth factor beta; TNC, tenascin C.
(§2) Cells were seeded (75,000 NHLF and lung CAF cells) into 12 well plates with RPMI+10% FBS and allowed to adhere overnight at 37° C., 5% CO2. After one day of serum starvation, cells were pre-treated for 1 hour with DMSO or Compound 1 at 30 μM, 10 μM, 3 μM, 1 μM, or 0.3 μM and then stimulated with 10 ng/mL TGF-β. The 24-hour Compound 1 treated samples were harvested for ribonucleic acid (RNA) extraction.
(§3) Cells were directly lysed in Qiagen™ Buffer RLT Plus with 1% 2-Mercaptoethanol added. Total RNA from tumor samples and cell lines was isolated using Qiagen™ AllPrep® DNA/RNA 96 Kit according to manufacturer's protocol. Isolated RNA was analyzed with NanoDrop™ ONE Spectrophotometer for concentration. The RNA integrity was also analyzed on Agilent TapeStation 4200.
(§4) Complimentary deoxyribonucleic acid (cDNA) was prepared by using Invitrogen™ SuperScript™ III First-Strand Synthesis SuperMix for qRT-PCR. Up to 1 μg of RNA was prepared according to manufacturer's protocol, using Applied Biosystems™ Veriti™ 96-well thermal cycler. The reverse transcription (RT) program used for cDNA synthesis: • 1. 25° C., 10 minutes • 2. 50° C., 30 minutes • 3. 85° C., 5 minutes • 4. Add E. Coli RNase H, 37° C., 20 minutes • 5. Hold at 4° C. Quantitative Reverse Transcription Polymerase Chain Reaction (qRT-PCR).
(§5) The cDNA was diluted 1:3 fold in nuclease-free water for quantitative polymerase chain reaction (qPCR) setup. Human and mouse TaqMan™ assays for targeted genes were ordered through Applied Biosystems™. TaqMan™ assay selection was based on manufacturer's recommendation. The qRT-PCR was set up using Applied Biosystems™ TaqMan™ Fast Advanced Master Mix according to manufacturer's protocol. The qRT-PCR was run on QuantStudio™ 12 Flex with fast run mode: • 1. 95° C., 20 seconds • 2. 95° C., 1 second • 3. 60° C., 20 seconds • 4. Repeat steps 2-3, 39 times
(§6) The qPCR data was analyzed, and all cycle threshold (Ct) values were normalized to glyceraldehyde-3-phosphate dehydrogenase (GAPDH) (ΔCt). Analysis was plotted and presented using GraphPad Prism (GraphPad, Version 8.4.1, San Diego, CA).
(§7) The levels of phospho-c-Jun in NHLF and non-small cell lung CAF in response to TGF-β in the presence of DMSO or varying concentrations of Compound 1 were summarized in FIG. 7. Cells were treated with DMSO or Compound 1 for 1 hour prior to treatment with 10 ng/mL TGF-β for an additional 2 hours. Phospho-c-Jun levels were determined by western blot analysis and were normalized to DMSO treated samples. […] The relative expression of fibroblast activation markers in NHLF and lung CAF in response to TGF-β in the presence of DMSO or varying concentrations of Compound 1 were summarized in FIGS. 8A-8C and FIGS. 9A-9C. Cells were treated with DMSO or Compound 1 for 2 hours prior to treatment with 10 ng/mL TGF-β. The RNA expression was assessed 24 hours after TGF-β treatment.

[2] = system: TNC, ACTA2, PAI-1 transcripts in lung cancer-associated fibroblasts (CAF); assay: as above; format: cell-based, human
Method: as §1, with “FIGS. 9A-9C illustrates the effect of Compound 1 on Transcriptional Markers of Fibroblast Activation in Lung Cancer Associated Fibroblasts Treated with TGF-β. […] Lung cancer-associated” for “Normal human lung”, “(CAF,” for “(NHLF,”, “1-hour” for “1 hour”, “TGF-β-treatment” for “TGF-β treatment”, “[…],” for “TGF-β,”
as §2, §3, §4, §5, §6, §7

[3] = NHLF stimulated with TGFβ, 10 μM Compound 1
[4] = NHLF, 30 μM Compound 1, 10 ng/mL TGF-β, 24 hours
[5] = CAF stimulated with TGFβ, 10 μM Compound 1
[6] = CAF, 30 μM Compound 1, 10 ng/mL TGF-β, 24 hours

In the case of `C[C@@H]1CC[C@@H](Nc2nc(NC(C)(C)C)ncc2C(N)=O)C[C@H]1O` [Compound 1, 2-(tert-butylamino)-4-((1R,3R,4R)-3-hydroxy-4-methylcyclohexylamino)-pyrimidine-5-carboxamide], the “ACTA2 reduced relative to DMSO” value [1, 3] is reported as 4.1%, the “TNC reduced relative to DMSO” value [1, 3] is reported as 66% and the “TNC induction, reduction from peak activation to baseline” value ([1]; NHLF, 3 μM Compound 1, 10 ng/mL TGF-β, 24 hours) is reported as 48%. For the same compound, the “PAI-1 induction, reduction from peak activation to baseline” value ([1]; NHLF, 10 μM Compound 1, 10 ng/mL TGF-β, 24 hours) was 20%, the “ACTA2 induction, reduction from peak activation to baseline” value [1, 4] was 95% and the “PAI-1 induction, reduction from peak activation relative to baseline” value [1, 4] was 57%. The TNC expression [1, 4] was “lower than samples that never received TGF-β”, the “PAI-1 reduced relative to DMSO” value [2, 5] was “PAI-1, ACTA2, and TNC were reduced 71%,” and the “TNC reduced relative to DMSO” value [2, 5] was 77%. The “TNC induction, reduction from peak activation relative to baseline” value ([2]; CAF, 0.3 μM Compound 1, 10 ng/mL TGF-β, 24 hours) was 34%, the “PAI-1 induction, reduction from peak activation relative to baseline” value ([2]; CAF, 1 μM Compound 1, 10 ng/mL TGF-β, 24 hours) was 25% and the “ACTA2 induction, reduction from peak activation relative to baseline” value ([2]; CAF, 10 μM Compound 1, 10 ng/mL TGF-β, 24 hours) was 71%. The ACTA2 expression [2, 6] was “lower than samples in the absence of TGF-β”, the “PAI-1 induction, reduction from peak activation relative to baseline” value [2, 6] was 98% and the “TNC induction, reduction from peak activation relative to baseline” value [2, 6] was 97%.
